# Measurements published in patent US20230250433A1, “METHODS AND COMPOSITIONS FOR TREATMENT OF APC-DEFICIENT CANCER” (Board of Regents, The University of Texas System, priority 2020, published 2023).
# Experiments:
# [1] = system: APC deficient cell lines; experiment: Crystal violet staining after 680C91 treatment, APC deficient cell lines; type: cell-based, human; settings: 680C91 dose-dependent, 48 hr
# [2] = system: APC intact cells including CCD-841-CoN cells; experiment: Crystal violet staining after 680C91 treatment, APC intact cells; type: cell-based, human; settings: 680C91 dose-dependent, 48 hr, normal colon epithelial cells included
# [3] = system: APC-WT and APC-KO MC38 cell lines; experiment: Crystal violet staining of APC-WT and APC-KO MC38 cell lines after 680C91; type: cell-based, mouse; settings: APC-KO vs APC-WT MC38, dose-dependent, 48 hr
# [4] = system: APC-KO MC38 cells; experiment: Cell death (caspase-3 assay, colony formation) with 680C91 alone and 680C91/Kyn; type: cell-based, mouse
# Experimental: (§1) Normalized enrichment score (NES) and nominal P value are shown. […] The P value and R-square value are shown. […] Representative images of triplicate studies are shown. Scale bar, 100 μm. […] Dox food was applied at day 5 post-orthotopic injection to induce TDO2 knockdown in vivo (shControl, n=7, Dox, n=8, shAhR #1, #2, n=7). ***P<0.001. two-tailed t-test.
# (§2) To assess the roles of TDO2-Kyn-AhR axis in cancer relevant processes, colony formation assays were performed using the APC-KO MC38 ishTDO2 cell lines and APC-KO MC38 shAhR cell lines. […] Thus, the TDO2-Kyn-Ahr axis supports APC-null cancer cell proliferation and survival and its tumorigenic potential.
# (§3) Cell lysates were prepared with RIPA lysis buffer (Roche) with protease inhibitor […] Immunoblotting was performed following standard protocol. Antibodies were purchased from the indicated companies.
# (§4) Colorectal cancer cell proliferation in vitro was assayed through colony formation. 1×10^3 cells were seeded in each well of 6-well plates and cultured for 5-7 days. At the end point, cells were fixed and stained with 0.5% crystal violet in 25% methanol for 1 hr. These studies were performed in triplicate.
# [5] = system: Raw264.7; experiment: Transwell migration assay of macrophages in conditioned media; type: cell-based, mouse; settings: co-treatment with CXCL5; SX-682 1 μM, 36 hr
# Experimental: Two-way ANOVA analysis. […] Dox food was applied at day 5 post-orthotopic injection to induce TDO2 knockdown in vivo. n=4 per group. n.s.P>0.05, *P<0.05, […], ****P<0.0001. two-tailed t-test. […] FIGS. 12D and 12E show quantification of macrophages (F4/80+; FIG. 12D) and M2 macrophages (CD206+; FIG. 12E) in tumors shown in FIG. 12C. CyTOF data analyzed by FlowJo. Data represent mean±s.d., n=3 per group. *P<0.05, **P<0.01. two-tailed t-test. […] Recombinant CXCL5 protein (50 ng) and SX-682 (1 μM) were added to harvested condition media for 36 hr. Scale bar, 100 μm. n=3 biological replicates. Quantification is shown in lower panel. n.s. P>0.05, ***P<0.001, ****P<0.0001. two-tailed t-test. […] Clondronate liposomes or control encapsome liposomes were given intraperitoneally (100 μl) at day 2 post-orthotopic injection and three times a week. […]
# Macrophages (1×10^4 for Raw264.7 and BMDM) were suspended in serum-free culture medium and seeded into 24-well Transwell inserts ([…]). […] After 24 h, the migrated macrophages were fixed and stained with crystal violet (0.05%, sigma), and then counted as cells per field of view under microscope or measured as OD590 nm (expressed as migration index) after crystal violet was dissolved.
# [6] = system: APC-KO MC38 orthotopic tumors; experiment: Survival of C57BL/6J mice orthotopically implanted with APC-KO MC38 cells; type: in vivo, mouse; settings: 100 mg/kg twice a day by oral gavage from day 5 post-injection
# Source text: (§5) Induction of shTDO2 is indicated by GFP (highlighted with arrows). X63 magnification. […] Dox food was provided at day 5 after injection to induced TDO2 knockdown in vivo (n=5 per group). […] Scale bar, 100μm. […] Dox food was applied at day 5 post-orthotopic injection to induce TDO2 knockdown in vivo (ishTDO2 APC-WT MC38, n=5, ishTDO2 APC-WT+Dox MC38 and ishTDO2 APC-KO MC38, n=6, ishTDO2 APC-KO MC38+Dox, n=7). n.s.P>0.05, **P<0.01, ***P<0.001. two-tailed t-test. […] Dox food was applied at day 5 post-orthotopic injection to induce TDO2 knockdown in vivo (n=8 per group). n.s.P>0.05, **P<0.01, ***P<0.001. two-tailed t-test. FIGS. 4N and 4O show survival curves of C57BL/6J mice orthotopically implanted with APC-WT and APC-KO MC38 cell lines ([…]) treated with TDO2 inhibitor (FIG. 4N) or Epacadostat (FIG. 4O). TDO2 inhibitor and Epacadostat treatment (100 mg/kg) was initiated at day 5 post-injection twice a day by oral gavage. n.s.P>0.05, *P<0.05, ***P<0.001. Log-rank (Mantel-Cox) test. […] Scale bars, ×10 (200 μm).
# (§6) The inventors synthesized the TDO2 inhibitor PF06845102/EOS200809 (“TDO2i”), which has been documented to inhibit TDO2 activity in vivo (Schramme et al., Cancer Immunol Res. 2020 January; 8(1):32-45; incorporated herein by reference in its entirety) and administrated the drug by oral gavage to mice bearing APC-WT or APC-KO MC38 orthotopic tumors. […]
# [7] = system: APC-WT MC38 orthotopic tumors; experiment: Survival of C57BL/6J mice orthotopically implanted with APC-WT MC38 cells; type: in vivo, mouse; settings: 100 mg/kg twice a day by oral gavage from day 5 post-injection
# Source text: as §5, §6
# [8] = system: APC-KO MC38 cells; experiment: Colony formation assay of TDO2- or AhR-depleted cells with Kyn; type: cell-based, mouse; settings: Dox/Kyn co-treatment
# Experimental: as §1, §2, §4
# [9] = system: iKAP cell lysates; experiment: Cleaved Caspase-3 immunoblot in iKAP cells, 680C91 alone and 680C91/Kyn; type: cell-based, mouse; settings: 680C91/Kyn vs 680C91 alone
# Experimental: as §1, §2, §3
# [10] = system: BMDM; experiment: RT-qPCR of M2 macrophage signature genes in BMDM; type: cell-based, mouse; settings: CXCL5 50 ng, Kyn 1 mM, 24 hr
# Experimental: Scale bars, 50μm. […] Scale bars, 100 μm. […] (isTDO2 and isTDO2/shCXCL5 #2 groups, n=7, isTDO2/shCXCL5 #3, n=8). ****P<0.0001. two-tailed t-test. […] (shControl and shCXCL5 #2 groups, n=7, shCXCL5 #3, n=8). ****P<0.0001. two-tailed t-test.
# (§7) RNA was isolated from cells using Trizol (Invitrogen) following the manufacturer's instructions. RNA (200-500 ng) was first treated with RNase-free DNase I using the DNA-free kit (Ambion) to remove all genomic DNA, and then reverse-transcribed into cDNA using an ABI High Capacity cDNA RT Kit (Invitrogen). The cDNA was analyzed using real-time quantitative PCR (SYBR Green, Invitrogen) with an Applied Biosystems 7900 Sequence Detection System. Each reaction was performed in triplicate. The expression of each gene was normalized by that of mouse Actin or human GAPDH.
# [11] = system: BMDM; experiment: RT-qPCR analysis of Gas6 expression in BMDM; type: cell-based, mouse; settings: Kyn 1 mM, CXCL5 50 ng, Gas6 25 ng, 24 hr
# Experimental: (§8) The red box indicates Axl. […] Six replicates per group. two-tailed t-test. *P<0.05. […] Epithelial cells are stained with EpCam and indicated by GFP. X63 magnification. […] Total flux measurement of at the end point. **P<0.01. two-tailed t-test. […] Total flux measurement of tumors was done at the end point. **P<0.01. two-tailed t-test.
# To evaluate whether secreted factors from cancer cells might upregulate Gas6 expression in macrophages, BMDMs were incubated with conditioned media from MC38 cell lines. […] (FIG. 15H). Finally, to validate the roles of Gas6 in promoting tumor growth in vivo, CT26 cell lines and two independent Raw 264.7 shGas6 cell lines were co-injected into syngeneic Balb/CJ mice (FIG. 15I).
# as §7
# [12] = system: APC-WT and APC-KO MC38 cells; experiment: Cell viability assay with STF-31; type: cell-based, mouse; settings: STF-31 24 hr, dose-dependent
# [13] = system: Caco-2, DLD-1, and HCT-15 cell lines; experiment: Immunoblot for TDO2 and β-catenin in CRC cell lines treated with XAV-939; type: cell-based, human; settings: XAV-939 in a dose-dependent manner; WNT activity indicated by reduced level of β-catenin
# Experimental: The motif sequence is conserved in human and mouse genes. […] GAPDH as a negative control and MYC and AXIN2 as positive controls. […] FIGS. 3K-3M show immunoblot for TDO2 and β-catenin in DLD-1 cells (FIG. 3K), Caco-2 cells (FIG. 3L), and HCT-15 cells (FIG. 3M) treated with XAV-939 in a dose-dependent manner.
# Thus, APC loss induced activation of the WNT-betacatenin-TCF4 pathway resulting in TCF4-mediated upregulation of TDO2 gene transcription.
# as §3
# [14] = molecular target: T1, Axl (Mus musculus, UniProt Q00993); experiment: Immunoblots for Axl and phospho-Axl; type: cell-based; settings: APC-WT and APC-KO MC38 cells; R428 0.2 μM 24 h; rmGAS6 24 h
# T1 construct: immunoblots for Axl and phospho-Axl in APC-WT and APC-KO MC38 cells after R428 treatment (0.2 μM, 24 h); endogenous in cells; host or cells: MC38 mouse colorectal cancer cells, APC-WT and isogenic APC-KO
# T1 sequence (Q00993 19-888): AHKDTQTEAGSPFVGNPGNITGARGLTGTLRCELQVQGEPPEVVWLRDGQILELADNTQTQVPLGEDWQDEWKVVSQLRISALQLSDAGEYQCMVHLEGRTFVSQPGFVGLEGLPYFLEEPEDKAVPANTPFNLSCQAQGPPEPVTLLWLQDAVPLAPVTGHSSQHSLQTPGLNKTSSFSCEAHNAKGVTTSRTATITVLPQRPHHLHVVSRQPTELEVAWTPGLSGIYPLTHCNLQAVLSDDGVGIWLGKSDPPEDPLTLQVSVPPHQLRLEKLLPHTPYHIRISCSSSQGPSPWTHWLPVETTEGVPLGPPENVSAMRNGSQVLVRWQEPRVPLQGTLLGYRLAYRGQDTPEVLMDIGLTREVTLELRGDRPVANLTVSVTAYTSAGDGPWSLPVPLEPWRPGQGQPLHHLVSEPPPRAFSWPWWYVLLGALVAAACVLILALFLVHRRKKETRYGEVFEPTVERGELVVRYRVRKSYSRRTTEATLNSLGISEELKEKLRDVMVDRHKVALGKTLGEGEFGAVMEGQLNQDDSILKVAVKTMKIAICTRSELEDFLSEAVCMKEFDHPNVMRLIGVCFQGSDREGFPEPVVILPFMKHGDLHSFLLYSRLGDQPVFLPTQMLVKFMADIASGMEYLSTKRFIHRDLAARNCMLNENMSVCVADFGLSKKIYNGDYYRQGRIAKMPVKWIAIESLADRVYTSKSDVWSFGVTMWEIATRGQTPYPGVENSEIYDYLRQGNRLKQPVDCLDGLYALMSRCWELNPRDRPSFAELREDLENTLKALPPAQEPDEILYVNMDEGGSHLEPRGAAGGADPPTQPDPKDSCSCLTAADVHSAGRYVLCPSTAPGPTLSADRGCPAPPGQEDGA
# Source text: as §8
# (§9) Gas6 is a ligand of Axl and is secreted mainly by tumor-associated macrophages in the TME (Loges et al., 2010), raising the possibility that macrophage-derived Gas6 might activate Axl to support the growth of APC-deficient cancer cells.
# as §3
# [15] = system: LS180 and HT-29 cell lines; experiment: Colony formation assay with Gas6 and R428; type: cell-based, human; settings: Gas6 25 ng, 36 hr
# Source text: as §8, §9, §4
compound,measurement,setting,value
Fc1ccc2c(/C=C/c3cccnc3)c[nH]c2c1 [680C91],growth and survival,[1],impaired the growth and survival
same,growth and survival,[2],but not APC intact cells
same,sensitivity of APC depleted cells to TDO2 inhibition,[3],higher sensitivity to TDO2 inhibition
same,cell death indicated by caspase-3 assay,[4]; 680C91 alone,increased cell death
O=C(Nc1ccc(F)cc1)c1cnc(SCc2cc(OC(F)(F)F)ccc2B(O)O)nc1 [CXCR1/2 inhibitor],effect on CXCL5 rescue of macrophage recruitment,[5],abrogated the rescue by CXCL5 supplementation
NS(=O)(=O)NCCNc1nonc1C(=NO)Nc1ccc(F)c(Br)c1 [Epacadostat],survival of mice bearing APC-KO MC38 tumors,[6],did not exhibit anti-tumor effects
same,survival of mice bearing APC-WT MC38 tumors,[7],did not exhibit anti-tumor effects
"Nc1ccccc1C(=O)CC(N)C(=O)O (centres unmarked) [Kyn, kynurenine]",effect of Kyn on 680C91-induced cell death,[4]; 680C91/Kyn co-treatment,rescued by Kyn supplementation
same,effect of Kyn on reduced colony formation after TDO2 and AhR depletion,[8],rescued by Kyn treatment
same,cell death in iKAP model system,[9],decreased cell death
same,M2 macrophage markers,[10],M2 macrophage markers increased
same,Gas6 expression,[11],increased Gas6 expression
CC(C)(C)c1ccc(S(=O)(=O)NCc2ccc(C(=O)Nc3cccnc3)cc2)cc1 [STF-31],sensitivity of APC-KO vs APC-WT MC38 cells,[12],higher sensitivity
Oc1nc(-c2ccc(C(F)(F)F)cc2)nc2c1CSCC2 [XAV-939],TDO2 expression,[13],TDO2 expression was decreased
"rmGas6: mouse recombinant Gas6, ligand of Axl",Axl phosphorylation,[14],activated Axl
same,cancer cell growth in vitro,[15],promoted cancer cell growth
same,Gas6 expression,[11],increased Gas6 expression
